# Assay results: patent US7247734B2 (Vernalis (Cambridge) Limited, priority 2001, dated 2007)
# Where two headings read alike, the source gives them in different places.
# Legend:
# [1] = system: HCT116 human colon tumour cells; experiment: 96 h growth inhibition assay (SRB), HCT116; type: cell-based; conditions: Homo sapiens, HCT-116; HCT116, 96 h
# Description: (§1) The growth inhibition assay employed was based on that described previously (Kelland et al., 1993). HCT116 and HT29 human colon tumour cells (American Tissue Culture Collection) were seeded into 96-well tissue culture plates (approximately 1600–2000 cells per well) and allowed to attach for 36 hours. Eight wells were treated with a single concentration from a range of compound concentrations and incubated for 96 hours. Cells were fixed using ice cold 10% trichloroacetic acid (TCA). Plates were then washed five times with water, air dried, and stained with 0.4% sulphorhodamine B (SRB) in 1% acetic acid for 10 minutes. The SRB stain was solubilised in 10 mM Tris-HCl and the absorbance measured at 540 nm using a Titertek Multiscan MCC/340 MKII plate reader (Flow Laboratories, IEC, Basingstoke, N.H.). The absorbance values correspond to total protein content and are used as a measure of cell growth.
# HCT116 cells = experiment: Cellular protein by BCA assay after compound exposure (ELISA plates); type: cell-based, human; conditions: HCT116, 1 μM compound
# Description: Incubate at 37° for 30 min. • (6) Wash plates twice in PBS using an automated washer (Wellwash 5000 ten plate stacker-washer or Wellwash Ascent single plate washer, Thermo Labsystems, Basingstoke, UK). • (7) Block the plates by addition of blocking solution (100 μl) and incubate for 30 min. • (8) Add 100 μl primary antibody diluted to 0.95 μg/ml in PBS to each well and incubate plate for 1.5 h. Wash plates once with DELFIA® wash solution. • (9) Add 100 μl Europium labelled anti-mouse IgG diluted in DELFIA® assay buffer to 75 ng/ml and incubate for 1 hour. Wash plates once with DELFIA® wash solution as before. • (10) Add 100 μl DELFIA® enhancement solution to each well. • (11) Measure the fluorescence (615 nm) in Victor 2 1420 multilabel counter (Perkin Elmer Life Sciences, Milton Keynes, UK) using time-resolved measurement mode. • (12) Wash plates once with PBS and measure protein concentration by the addition of 200 μl BCA reagent to each well, shake for 1–2 min and incubate for 30 mins at 37° C. Read absorption at 570 nm. • (13) Express ELISA results by normalising to protein in the well (Eu counts (cpm) divided by OD@ 570 nm). Compare the effect of HSP90 inhibitors on HSP70 expression with DMSO treated controls. Comments • (1) Cells plated into 96 well plates are incubated in a plastic box to reduce evaporation from the outside wells. In addition, ELISA incubation steps are carried out in a 37° C. laboratory incubator and in a moist environment e.g., plastic box lined with damp tissue paper. • (2) All additions to the microtitre plate can be achieved using a multichannel pipette or for larger numbers of plates an automated dispenser such as a Multidrop (Thermo Labsytems, Basingstoke, UK). • (3) For convenience, if the effects of compounds are being studied at several time points the ELISA can be carried out in batches, plates being stored (in a container) at 4° C. following the fixation step. In this case the plates are washed only once following fixation and again immediately before the first ELISA step (step 6 above). In addition all the plates can be stored for subsequent protein estimation. • (4) Reproducibility of both the measured Europium counts and the protein measurements was between 10–15% (CV). • (5) DELFIA® reagents (see, e.g., Hemmila and Webb, 1997) have been routinely used in cell-based ELISAs. This endpoint provides high sensitivity and the time-resolved measurements reduce interference from non-specific fluorescence. However, it is also possible to use a horse radish peroxidase second antibody conjugate and either a calorimetric (e.g., tetramethylbenzidine) or chemiluminescent reagent (e.g., ECL reagent (Amersham Pharmacia Biotech, Little Chalfont, Bucks, UK) for endpoint measurement. • (6) It is recommended that a blank consisting of second-antibody only (i.e., no first antibody) together with an appropriate first antibody control (e.g., isotype matched IgG) are included in assays during the process of optimising reagent concentrations. Growth Inhibition Assay
# The effect of various compounds of the present invention on the expression of the molecular marker HSP70 was determined using the cell-based ELISA and a specific monoclonal antibody to HSP70 in HCT116 cells, as described above. Cellular protein following compound exposure was determined using BCA assay as described in the method.
# HSP70 in HCT116 cells = experiment: Cell-based ELISA for HSP70 expression; parameters: species or system human; conditions: HCT116, 1 μM compound
# Text: Cell-based ELISA methods (see, e.g., Stockwell et al., 1999; Versteeg et al., 2000) offer several advantages for evaluating the pharmacodynamic effects of novel mechanism-based inhibitors and may be the method of choice for comparing inhibitors that are identified during the iterative process of lead identification and optimisation. The technique can be used to rapidly rank the effectiveness of compounds as well as to investigate the molecular mechanisms of their action. The increased sample throughput possible with ELISA means that compounds can be simultaneously studied in multiple replicates at different doses and exposure times. […] The assays are carried out directly on cells grown and treated in microtitre plates, thereby removing the necessity for preparing cell lysates. ELISA techniques can in theory be applied to any cellular protein or post-translational modification for which an antibody is available and results are at least semi-quantitative.
# Chemicals are of the highest purity commercially available. • (1) Human colon tumour cell lines (e.g., HCT116 and HT29 from American Tissue Culture Collection, ATCC) grown in Dulbecco's modified Eagle's medium (DMEM) (CSSD, Institute of Cancer Research, London, UK) supplemented with […] glucose, 10% foetal bovine serum (FBS), 200 mM L-glutamine, and 5 ml non-essential amino acids in a humidified atmosphere of 5% CO2 at 37° C. • (2) 96 well Falcon clear microtitre tissue culture plates (BD Labware, Hospital Management and Supplies, Ltd., Northampton, UK). • (3) DMSO diluted in dH2O (8%). • (4) HSP90 inhibitors at required concentration dissolved in DMSO. • (5) Fixing solution (0.25% glutaraldehyde, 3% paraformaldehyde and 0.25% Triton-X 100) (all from Sigma Aldrich Ltd, Poole, UK). • (6) Blocking solution (5% dried milk (Marvel) in PBS) prepared daily. • (7) Anti HSP70 monoclonal antibody (SPA 810, Bioquote, York, UK). • (8) DELFIA® wash buffer, enhancement solution, assay buffer and Europium labelled anti-mouse IgG (1244–1330) (PerkinElmer Life Sciences, Milton Keynes, UK). • (9) BCA protein assay reagents (Perbio Science UK Ltd., Chester, UK). Method
# Incubate at 37° for 30 min. • (6) Wash plates twice in PBS using an automated washer (Wellwash 5000 ten plate stacker-washer or Wellwash Ascent single plate washer, Thermo Labsystems, Basingstoke, UK). • (7) Block the plates by addition of blocking solution (100 μl) and incubate for 30 min. • (8) Add 100 μl primary antibody diluted to 0.95 μg/ml in PBS to each well and incubate plate for 1.5 h. Wash plates once with DELFIA® wash solution. • (9) Add 100 μl Europium labelled anti-mouse IgG diluted in DELFIA® assay buffer to 75 ng/ml and incubate for 1 hour. Wash plates once with DELFIA® wash solution as before. • (10) Add 100 μl DELFIA® enhancement solution to each well. • (11) Measure the fluorescence (615 nm) in Victor 2 1420 multilabel counter (Perkin Elmer Life Sciences, Milton Keynes, UK) using time-resolved measurement mode. • (12) Wash plates once with PBS and measure protein concentration by the addition of 200 μl BCA reagent to each well, shake for 1–2 min and incubate for 30 mins at 37° C. Read absorption at 570 nm. • (13) Express ELISA results by normalising to protein in the well (Eu counts (cpm) divided by OD@ 570 nm). Compare the effect of HSP90 inhibitors on HSP70 expression with DMSO treated controls. Comments • (1) Cells plated into 96 well plates are incubated in a plastic box to reduce evaporation from the outside wells. […]
# [2] = system: HT29 human colon tumour cells; experiment: 96 h growth inhibition assay (SRB), HT29; type: cell-based; conditions: Homo sapiens, HT-29; HT29, 96 h
# Description: as §1
# yeast HSP90 = biological target: T1, yeast HSP90 (Saccharomyces cerevisiae, UniProt P02829); experiment: Malachite green HSP90 ATPase assay; type: biochemical
# T1 construct: made in house; host or cells: E. coli
# Text: Two methods have been developed to measure the intrinsic ATPase activity of HSP90, using yeast HSP90 as a model system. The first method utilises a regenerating coupled enzyme assay. The second assay, based on the use of malachite green for the measurement of inorganic phosphate, was designed for high throughput screening (HTS) to identify novel HSP90 inhibitor drug candidates.
# Colorimetric assays for the determination of phosphate, based on the formation of a phosphomolybdate complex, can be carried out in a few steps with inexpensive reagents and are well suited to the automation required for high throughput screening (see, e.g., Cogan et al., 1999). Enzymes that release inorganic phosphate are assayed using the reaction of the cationic dye, malachite green, with the a complex formed by a reaction of the inorganic phosphate with molybdate to generate a blue-green colour with an absorbance maximum at 610 nm (see, e.g., Baykov et al., 1988; Harder et al., 1994; Maehama et al., 2000). The method has been used in both high throughput (see, e.g., Rumsfeld et al., 2000) and ultra-high throughput screening formats (see, e.g., Layery et al., 2001) for a variety of non-HSP90 ATPases. However, this method is complicated by the non-enzymatic hydrolysis of ATP in the presence of acidic malachite green reagent, causing an increase in colour (see, e.g., Chan et al., 1986; Henkel et al., 1988). This process is mediated by molybdate and can be overcome by the addition of sodium citrate immediately after the reagent (see, e.g., Lanzetta et al., 1979; Schirmer et al., 1998; Baginski et al., 1975). This modification has been adapted to the 96-well microtitre plate assay previously described for other ATPases (see, e.g., Lanzetta et al., 1979) to produce the following protocol for HSP90 ATPase, which is suitable for high throughput screening.
# Chemicals are of the highest purity commercially available and all aqueous solutions are made up in AR water. Because of the need to minimise contamination with inorganic phosphate, precautions should be taken with solutions and apparatus used in the assays. Glassware and pH meters are rinsed with double distilled or deionised water before use and, wherever possible, plastic ware should be used. Gloves are worn for all procedures. • (1) Immulon 96-well (Thermo Labsystems, Basingstoke, UK) or Cliniplate 384-well flat-bottomed polystyrene multiwell plates (Thermo Labsystems). • (2) Assay buffer of (a) 100 mM Tris-HCl, pH 7.4, (b) 20 mM KCl, (c) 6 mM MgCl2. Stored at 4° C. • (3) 0.0812% (w/v) malachite green (M 9636, Sigma Aldrich Ltd., Poole, UK). Stored at room temperature. • (4) 2.32% (w/v) polyvinyl alcohol USP (P 1097, Sigma Aldrich Ltd, Poole, UK) in boiling water (see Comment 1), allowed to cool, and stored at room temperature. • (5) 5.72% (w/v) ammonium molybdate in 6 M hydrochloric acid. Stored at room temperature. • (6) 34% (w/v) sodium citrate. Stored at room temperature. • (7) ATP, disodium salt, special quality (519979, Boehringer Mannheim, Lewes, UK). Stored at 4° C. • (8) E. coli expressed yeast HSP90 protein, purified >95% (see, e.g., Panaretou et al., 1998) and stored at −80° C. as 10 μl aliquots containing 0.5 mg of protein. Method
# The following protocol was used: • (1) On the day of use, prepare the malachite green reagent from the stock solutions. Mix (a) 2 parts of malachite green, (b) 1 part of polyvinyl alcohol, (c) 1 part of ammonium molybdate, and (d) 2 parts of water. Initially, the reagent is a dark brown colour, but after standing at room temperature for about 2 h, this becomes a golden yellow colour and is ready for use. • (2) For the high throughput screening assays, the test compounds are dissolved at 200 μM in 2.0% DMSO and contained in daughter plates derived from the chemical libraries. Transfer 5 μl of each sample from the daughter plate to each well of the assay plate using automated equipment (see Comment 3). This represents a final concentration in the well of 40 μM.
# [3] = activity class, read-out: Hsp90 IC50
# [4] = ATPase IC50, activity range, ATPase assay
# T1 sequence (P02829 whole entry, looked up): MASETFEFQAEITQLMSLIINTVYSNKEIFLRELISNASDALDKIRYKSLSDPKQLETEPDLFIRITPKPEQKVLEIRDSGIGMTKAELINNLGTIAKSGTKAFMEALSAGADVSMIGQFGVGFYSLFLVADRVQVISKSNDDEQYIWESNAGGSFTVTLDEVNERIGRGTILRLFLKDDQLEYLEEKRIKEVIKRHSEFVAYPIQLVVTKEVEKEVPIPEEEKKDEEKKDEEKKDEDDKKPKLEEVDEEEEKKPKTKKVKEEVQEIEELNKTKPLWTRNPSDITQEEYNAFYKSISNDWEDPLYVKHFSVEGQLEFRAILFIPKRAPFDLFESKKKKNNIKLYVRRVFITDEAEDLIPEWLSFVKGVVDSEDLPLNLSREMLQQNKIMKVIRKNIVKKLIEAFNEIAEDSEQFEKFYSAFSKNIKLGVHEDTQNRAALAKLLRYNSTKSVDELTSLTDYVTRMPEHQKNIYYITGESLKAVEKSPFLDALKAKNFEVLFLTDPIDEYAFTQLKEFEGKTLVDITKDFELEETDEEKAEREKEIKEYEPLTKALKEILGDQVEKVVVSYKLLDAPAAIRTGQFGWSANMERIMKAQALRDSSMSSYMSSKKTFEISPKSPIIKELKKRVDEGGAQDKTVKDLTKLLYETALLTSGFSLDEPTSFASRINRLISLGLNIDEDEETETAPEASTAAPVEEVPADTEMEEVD
structure (smiles),measurement,setting,value
"COC1=C2C[C@@H](C)C[C@H](OC)[C@H](O)[C@@H](C)/C=C(\C)[C@H](OC(N)=O)[C@@H](OC)/C=C\C=C(/C)C(=O)NC(=CC1=O)C2=O [Geldanamycin, geldanamycin, reference compound]",IC50,[1],0.07 µM
same,Cellular Protein (% DMSO controls),HCT116 cells; (48 h),46.3%
same,Cellular Protein (% DMSO controls),HCT116 cells; (time not given),75.3%
same,% increase in HSP70 (Normalised Europium Counts compared to DMSO controls),HSP70 in HCT116 cells; (48 h),270%
same,% increase in HSP70 (Normalised Europium Counts compared to DMSO controls),HSP70 in HCT116 cells; (time not given),169%
same,IC50,[2],0.05 µM
CCc1cc(-c2n[nH]cc2-c2ccc3c(c2)OCO3)c(O)cc1OC [Example 120],IC50,yeast HSP90; [3],> 10 µM
CCOC(=O)c1ccc(-c2n[nH]c(C)c2-c2ccc3c(c2)OCCO3)cc1 [Example 114],IC50,yeast HSP90; [3],> 10 µM
CCc1cc(-c2n[nH]cc2-c2ccc([N+](=O)[O-])cc2)c(O)cc1OC [Example 80],IC50,yeast HSP90; [3],10 to 100 µM
"COc1ccc(-c2c(-c3cc(Cl)c(O)cc3O)n[nH]c2C(N)=O)cc1 [Example 172, 5-(5-Chloro-2,4-dihydroxy-phenyl)-4-(4-methoxy-phenyl)-2H-pyrazole-3-carboxylic acid amide]",IC50,yeast HSP90; [4],< 50 µM
"CNC(=O)c1[nH]nc(-c2cc(Cl)c(O)cc2O)c1-c1ccc(OC)cc1 [Example 168, 5-(5-Chloro-2,4-dihydroxy-phenyl)-4-(4-methoxy-phenyl)-2H-pyrazole-3-carboxylic acid methylamide]",IC50,yeast HSP90; [4],< 50 µM
COc1ccc(-c2cccc(-c3c[nH]nc3-c3cc(Cl)c(O)cc3O)c2)cc1OC [Example 68],IC50,yeast HSP90; [3],10 to 100 µM
N#CCCCOc1ccccc1-c1c[nH]nc1-c1cc(Cl)c(O)cc1O [Example 74],IC50,yeast HSP90; [3],< 10 µM
